Source: patent US6340755B1, “5H-Pyrano[2,3-d: 6,5-d']dipyrimidine derivatives having an antibacterial, antiviral and immuno-modulating activity” (Natural Drug Sciences LLC, priority 2000, dated 2002)

Experiments:
Type in all cases: cell-based
[1] = test system: primary culture of human lymphocytes; test: Interferon-inducing activity in primary culture of human lymphocytes (immunoenzyme IFN determination); design: unit of the concentration uncertain; conditions: 24 hours of incubation
Experimental: Interferon synthesis induction by the claimed preparations was conducted on a primary culture of human lymphocytes (the cells in the human body are the main producers of interferon). To obtain a culture of the lymphocytes we used fresh blood (12 hours after collection) from healthy […] (not from the second group).
The lymphocyte concentration was determined after staining with methyl blue and the number of cells in the Goryaev chamber was calculated. […] The final concentration of the lymphocytes in the induction mixture was 3·10^6 cells/ml. The following controls were processed in parallel with the test samples:
The control and the experimental samples were incubated for 24 hours at 37° C. Following incubation the samples were centrifuged at 2000 g to settle out the cellular elements and the INF-containing supernatant was taken from the samples and analyzed for INF content. The cell residue was resuspended in the same volume of nutrient medium, stained with a vital dye—trypan blue—and the number of cells in the Goryaev chamber was calculated (as described above) to determine the cytotoxic activity of the preparations.
For the quantitative determination of INF in the control and experimental samples we used the ProCon IF2 Plus immunoenzyme test system sold by TOO Proteinovyi Kontur. To determine the quantity of interferon s in the sample we used a solid-phase immunoenzyme method utilizing horseradish peroxidase as the enzyme indicator. The activity of the bound peroxidase was measured using an automated photometer at a wavelength of 450 nm for the microplanchets with a microprocessor. […] On the basis of the results obtained we plotted a calibration curve that allowed us to obtain data expressed in International Units (IU) from the microprocessor of the automated photometer. The results of the analysis are expressed in IU of activity of INF per ml in the given induction system containing 3·10^6 lymphocytes/ml. Every experimental and control point was studied in 4 parallel runs.
The results obtained were analyzed statistically using the t-test and the confidence interval at p=0.05 was calculated. Analysis of the convergence of the results of the parallel tests were performed.

[2] = test system: C. trachomatis D323; test: Activity on Chlamydia trachomatis in McCoy and L929 cell cultures; conditions: 48 hours; for number of cells in 100 fields (unchanged cells): cell control 8000, infected cell control 6400
Experimental: The antimicrobial activity of the claimed compounds was studied on C. trachomatis […]-a standard strain from the collection of the Department of Microbiology of the Pavlov St.-Petersburg State University. This strain was isolated from a patient with […] urethritis. […] In the work reported here we used McCoy and L929 cell cultures obtained from the Institute of Cytology of the Russian Academy of Sciences. The cells were grown in flasks of neutral glass in RPMI-1640 medium with an addition of 10% fetal calf serum. The experiment was placed in glass (toxicity-free) flat-bottomed flasks and covered with glass. The cells were introduced into the medium in a final concentration of 1·10 cells/ml. […] The sample was centrifuged at 2400 g for 60 min at room temperature and incubated at 37° C. for 2 hours. […] A parallel series of samples was run using medium without the cycloheximide in order to avoid its influence on the test substances. The samples were incubated for 48 hours in a CO2 incubator. […] The results were evaluated from the detection of chlamydia cytoplasmatic inclusion by an immunoenzyme method (MicroTrac Chlamydia trachomatis Direct Specimen Test) and from chlamydia antigens using CylaMonoScreen (Russian-British Joint Venture, 66 Regent's Park Road, London NW 1 7SX).

[3] = test system: Vero cell culture; test: Control of compounds (toxicity of compounds) in the herpes experiment; conditions: 100 mg/l; Vero cells
Experimental: (§1) The antiviral activity was studied relative to the virus herpes simplex type I (VPG-I/Leningrad/248/88) by a standard method. The virus was grown on a reinoculated Vero cell culture obtained from the cell culture bank of the Institute of Cytology of the Russian Academy of Sciences.
To cells grown on medium RPMI-1640 with 10% calf serum and placed in the wells of a 96-well plate, the virus was added to give a final concentration of 10 particles/ml and […] We used 5 individual wells for every concentration tested. The plate was incubated for 60 min at 38° C. in a CO2 incubator. After incubation the virus was removed and new medium was added that contained the claimed compounds in the test concentrations.
4. Control of compounds (toxicity of compounds).

[4] = test system: McCoy and L929 cell cultures; test: Control of the test compounds on toxicity relative to cell cultures in the chlamydia experiment; conditions: 100 mg/l
Experimental: In the work reported here we used McCoy and L929 cell cultures obtained from the Institute of Cytology of the Russian Academy of Sciences. The cells were grown in flasks of neutral glass in RPMI-1640 medium with an addition of 10% fetal calf serum. The experiment was placed in glass (toxicity-free) flat-bottomed flasks and covered with glass. The cells were introduced into the medium in a final concentration of 1·10 cells/ml. After a monolayer was obtained, standard infectious doses of chlamydia that had been maintained in a frozen state at −70° C. were added to test tubes. […] The sample was centrifuged at 2400 g for 60 min at room temperature and incubated at 37° C. for 2 hours. […] A parallel series of samples was run using medium without the cycloheximide in order to avoid its influence on the test substances. The samples were incubated for 48 hours in a CO2 incubator.

[5] = test system: herpes simplex type I (VPG-I/Leningrad/248/88); test: Activity on herpes simplex virus: cytopathic action of the virus on Vero cells; conditions: 100 mg/l, 36 hours; for number of cells in 100 fields (unchanged cells): cell control 12000
Experimental: as §1
To cells grown on medium RPMI-1640 with 10% calf serum and placed in the wells of a 96-well plate, the virus was added to give a final concentration of 10 particles/ml and the claimed compounds dissolved in DMSO were added to give a final concentrations of 100, 10, and 1 mg/l. We used 5 individual wells for every concentration tested. The plate was incubated for 60 min at 38° C. in a CO2 incubator. After incubation the virus was removed and new medium was added that contained the claimed compounds in the test concentrations.
The results were evaluated according to the existence of a cytopathic action of the virus on the cells after 36 hours of incubation at 38° C. in the CO2 incubator.
The following controls were used in the experiment:
3. Control of antiviral activity of an antiviral preparation—acylcovir.
To access the cytopathic effect of the virus, we counted the number of unchanged cells in 100 fields formed by a specialized grid on the eyepiece of the inversion microscope.

| Compound | Interferon-inducing activity of the drug; content of INF in induction mixture ([1]; 1 (unit uncertain)) [IU/3 · 10^4 lymp/ml] | Interferon-inducing activity of the drug; content of INF in induction mixture ([1]; 10 (unit uncertain)) [IU/3 · 10^4 lymp/ml] | Interferon-inducing activity of the drug; content of INF in induction mixture ([1]; 100 (unit uncertain)) [IU/3 · 10^4 lymp/ml] | percent protection of the cells against infection ([2]; 30 mg/l) [%] | number of cells in 100 fields (unchanged cells) ([2]; 30 mg/l) | cytotoxicity of compound [3] | cytotoxicity of compound [4] | percent protection of the cells against the virus compared to the cell culture control [5] [%] | number of cells in 100 fields (unchanged cells) [5] | percent protection of the cells against infection ([2]; 100 mg/l) [%] | number of cells in 100 fields (unchanged cells) ([2]; 100 mg/l) |
| --- | --- | --- | --- | --- | --- | --- | --- | --- | --- | --- | --- |
| Oc1nc(O)c2c(n1)Oc1nc(O)nc(O)c1C2 [IV] | 3.8 ± 1.5 | 29.9 ± 2.0 | 74.0 ± 1.8 | 40 | 7040 | Cytotoxic | cytotoxic | – | – | – | – |
| O=[N+]([O-])c1ccc(C2c3c(O)nc(S)nc3Oc3nc(S)nc(O)c32)cc1 [IX, 4-6-Dihydroxy-2,8-dimercapto-5-(p-nitrophenyl)-5H-pyrano[2,3-d:6,5-d′]dipyrimidine] | 6.8 ± 2.0 | 28.0 ± 2.5 | 64.0 ± 1.8 | – | – | – | – | 40 | 4800 | 60 | 7360 |
| COc1nc(O)nc2c1C(c1ccc([N+](=O)[O-])cc1)c1c(OC)nc(O)nc1O2 [V, 2,8-Dihydroxy-4,6-dimethoxy-5-(4-nitrophenyl)-5H-pyrano[2,3-d:6,5-d′]dipyrimidine] | 10.5 ± 2.5 | 50.6 ± 1.8 | 108.9 ± 2.0 | – | – | – | cytotoxic | 50 | 6000 | – | – |
| Oc1nc(O)c2c(n1)Oc1nc(O)nc(O)c1C2c1ccc(Br)cc1 [VII] | 5.6 ± 1.6 | 10.6 ± 1.8 | 22.2 ± 1.4 | – | – | – | cytotoxic | 30 | 3600 | – | – |
| Oc1nc(O)c2c(n1)Oc1nc(O)nc(O)c1C2c1ccc(Cl)cc1 [VI] | 6.5 ± 1.4 | 36.9 ± 1.2 | 92.2 ± 2.1 | – | – | – | – | 50 | 6000 | 15 | 6560 |
